biological target: KRAS G12C (GMPPNP-loaded) and cRAF (Ras-binding domain) interaction (Homo sapiens (Human), UniProt P01116, C118S/C51S/C80L/G12C); assay: Inhibition of KRAS G12C and cRAF binding (AlphaScreen); settings: KRAS G12C loaded with GMPPNP, cRaf RBD, 2 hours preincubation; read-out: Raf-1 RBD K-Ras IC50
Procedure: Compounds were diluted in 100% DMSO and each compound concentration was spotted at 200 nl/well onto low volume, white 384 well plates. […] KRAS G12C was preloaded with the GTP analogue Guanosine 5′-[β,γ-imido]triphosphate (GMPPNP). The KRAS G12C was diluted in 25 mM Hepes, pH 7.4, 150 mM NaCl, 5 mM MgCl2, 0.01% TritonX-100 and 10 μM GMPPNP and added at 10 ul/well to compound-spotted plates resulting in a DMSO concentration of 2%. Plates were incubated for 2 hours. A mixture of RBD and the AlphaScreen streptavidin donor and glutathione acceptor beads diluted in 25 mM Hepes, pH 7.4, 150 mM NaCl, 5 mM MgCl2, 0.01% TritonX-100 and 2% DMSO was then added at 10 ul/well and incubated for 60-90 minutes before the samples were read for emission at 570 nm after excitation of the donor beads at 680 nm. All incubations were performed at room temperature. The final top compound concentration was 50 μM with 1:3 titrations for 10-point dose response curves. […] IC50S were determined using nonlinear regression fit of [inhibitor] vs. response (4 parameters). […]

KRAS G12C (GMPPNP-loaded) and cRAF (Ras-binding domain) interaction, sequence (P01116 other isoform, or with tags, fused parts or gaps G12C/C51S/C80L/C118S): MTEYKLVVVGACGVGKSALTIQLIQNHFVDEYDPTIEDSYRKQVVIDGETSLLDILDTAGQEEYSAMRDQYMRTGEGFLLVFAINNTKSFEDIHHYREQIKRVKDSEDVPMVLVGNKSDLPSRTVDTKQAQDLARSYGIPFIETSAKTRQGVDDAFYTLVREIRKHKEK

| Compound | IC50 [nM] |
| --- | --- |
| N#CC[C@H]1CN(c2nc(OCC34CCCN3CCC4)nc3c2CCN(c2cccc4cccc(Cl)c24)C3)CCN1C(=O)/C=C/c1cnccn1 [Compound 39] | > 500 |
| Cn1cnc(/C=C/C(=O)N2CCN(c3nc(OC[C@@]45CCCN4C[C@H](F)C5)nc4c(F)c(-c5cccc6cccc(Cl)c56)ncc34)C[C@@H]2CC#N)n1 [Compound 40] | > 500 |
| Cn1cnc(/C=C/C(=O)N2CCN(c3nc(OC[C@@]45CCCN4C[C@H](F)C5)nc4c(F)c(-c5cccc6cccc(Cl)c56)ncc34)C[C@@H]2CC#N)c1 [Compound 42] | > 500 |
| Cn1cnc(/C=C/C(=O)N2CCN(c3nc(OC[C@@]45CCCN4C[C@H](F)C5)nc4c3CCN(c3cccc5cccc(Cl)c35)C4)C[C@@H]2CC#N)n1 [Compound 43] | > 500 |
| Cn1cnc(/C=C/C(=O)N2CCN(c3nc(OC[C@@]45CCCN4C[C@H](F)C5)nc4c3CCN(c3cccc5cccc(Cl)c35)C4)C[C@@H]2CC#N)c1 [Compound 44] | 100 to 500 |
| Cc1c(F)ccc2cccc(-c3ncc4c(N5CCN(C(=O)/C=C/CN6[C@@H]7CC[C@H]6COC7)[C@@H](CC#N)C5)nc(OC[C@@]56CCCN5C[C@H](F)C6)nc4c3F)c12 [Compound 106, 2-((S)-1-((E)-4-((1R,5S)-3-oxa-8-azabicyclo[3.2.1]octan-8-yl)but-2-enoyl)-4-(8-fluoro-7-(7-fluoro-8-methylnaphthalen-1-yl)-2-(((2R,7aS)-2-fluorotetrahydro-1H-pyrrolizin-7a(5H)-yl)methoxy)pyrido[4,3-d]pyrimidin-4-yl)piperazin-2-yl)acetonitrile] | < 10 |
| CC1(/C=C/C(=O)N2CCN(c3nc(OCC45CCCN4CCC5)nc4c3CCN(c3cccc5cccc(Cl)c35)C4)C[C@@H]2CC#N)COC1 [Compound 116] | > 500 |
| Cn1nnc(/C=C/C(=O)N2CCN(c3nc(OCC45CCCN4CCC5)nc4c3CCN(c3cccc5cccc(Cl)c35)C4)C[C@@H]2CC#N)n1 [Compound 119] | > 500 |
| CC(C)c1noc(/C=C/C(=O)N2CCN(c3nc(OC[C@@]45CCCN4C[C@H](F)C5)nc4c(F)c(-c5cccc6cccc(Cl)c56)ncc34)C[C@@H]2CC#N)n1 [Compound 121] | 100 to 500 |
| CC(C)c1noc(/C=C/C(=O)N2CCN(c3nc(OCC45CCCN4CCC5)nc4c(F)c(-c5cccc6ccc(F)c(Cl)c56)ncc34)C[C@@H]2CC#N)n1 [Compound 129] | 100 to 500 |
| CC(C)c1noc(/C=C/C(=O)N2CCN(c3nc(OC[C@@]45CCCN4C[C@H](F)C5)nc4c(F)c(-c5nc(N)cc6cccc(F)c56)ncc34)C[C@@H]2CC#N)n1 [Compound 134] | 10 to 100 |
| C[C@H](F)c1noc(/C=C/C(=O)N2CCN(c3nc(OC[C@@]45CCCN4C[C@H](F)C5)nc4c(F)c(-c5cccc6cccc(Cl)c56)ncc34)C[C@@H]2CC#N)n1 [Compound 137] | 10 to 100 |
| CC(C)c1noc(/C=C/C(=O)N2CCN(c3nc(OCC45CCCN4CCC5)nc4c3CCN(c3ccccc3C(F)F)C4)C[C@@H]2CC#N)n1 [Compound 144] | > 500 |
| N#CC[C@H]1CN(c2nc(OCC34CCCN3CCC4)nc3c2CCN(c2cccc4cccc(Cl)c24)C3)CCN1C(=O)/C=C/CCN1CCOCC1 [Compound 153] | 10 to 100 |
| N#CC[C@H]1CN(c2nc(OCC34CCCN3CCC4)nc3c2CCN(c2cccc4cccc(Cl)c24)C3)CCN1C(=O)/C=C/CN1CCOC2CC21 (some centres unmarked) [Compound 164] | 10 to 100 |
| N#CC[C@H]1CN(c2nc(OCC34CCCN3CCC4)nc3c2CCN(c2cccc4cccc(Cl)c24)C3)CCN1C(=O)/C=C/CN1CC2CC(C1)O2 [Compound 166] | < 10 |
| N#CC[C@H]1CN(c2nc(OCC34CCCN3CCC4)nc3c2CCN(c2cccc4cccc(Cl)c24)C3)CCN1C(=O)/C=C/CN1CCC(F)(F)C1 [Compound 176] | 10 to 100 |
| N#CC[C@H]1CN(c2nc(OCC34CCCN3CCC4)nc3c2CCN(c2cccc4cccc(Cl)c24)C3)CCN1C(=O)/C=C/CN1CC(F)(F)C1 [Compound 177] | 10 to 100 |
| N#CC[C@H]1CN(c2nc(OCC34CCCN3CCC4)nc3c2CCN(c2cccc4cccc(Cl)c24)C3)CCN1C(=O)/C=C/CN1CCCS1(=O)=O [Compound 178] | 100 to 500 |
| C[C@@H]1CN(C/C=C/C(=O)N2CCN(c3nc(OCC45CCCN4CCC5)nc4c3CCN(c3cccc5cccc(Cl)c35)C4)C[C@@H]2CC#N)C[C@H](C)O1 [Compound 196] | 10 to 100 |
| C[C@@H]1CN(C/C=C/C(=O)N2CCN(c3nc(OCC45CCCN4CCC5)nc4c3CCN(c3cccc5cccc(Cl)c35)C4)C[C@@H]2CC#N)C[C@@H](C)O1 [Compound 197] | 10 to 100 |
| N#CC[C@H]1CN(c2nc(OCC34CCCN3CCC4)nc3c2CCN(c2cccc4cccc(Cl)c24)C3)CCN1C(=O)/C=C/CN1C2COCC1C2 [Compound 199] | < 10 |

Continued, values first:

| IC50 [nM] | Compound |
| --- | --- |
| 10 to 100 | CC(F)(F)c1noc(/C=C/C(=O)N2CCN(c3nc(OCC45CCCN4CCC5)nc4c3CCN(c3cccc5cccc(Cl)c35)C4)C[C@@H]2CC#N)n1 [Compound 41] |
| 10 to 100 | CC1(c2noc(/C=C/C(=O)N3CCN(c4nc(OCC56CCCN5CCC6)nc5c4CCN(c4cccc6cccc(Cl)c46)C5)C[C@@H]3CC#N)n2)CC1 [Compound 45] |
| 10 to 100 | CC1(c2noc(/C=C/C(=O)N3CCN(c4nc(OC[C@@]56CCCN5C[C@H](F)C6)nc5c4CCN(c4cccc6cccc(Cl)c46)C5)C[C@@H]3CC#N)n2)CC1 [Compound 46] |
| < 10 | N#CC[C@H]1CN(c2nc(OC[C@@]34CCCN3C[C@H](F)C4)nc3c(F)c(-c4nc(N)cc5cccc(Cl)c45)ncc23)CCN1C(=O)/C=C/CN1CCOCC1 [Compound 59] |
| < 10 | N#CC[C@H]1CN(c2nc(OCC34CCCN3CCC4)nc3c2CCN(c2cccc4cccc(Cl)c24)C3)CCN1C(=O)/C=C/CN1C[C@H]2C[C@@H]1CO2 [Compound 63] |
| < 10 | CCc1c(F)ccc2cccc(-c3ncc4c(N5CCN(C(=O)/C=C/c6cc(C)nc(C)n6)[C@@H](CC#N)C5)nc(OC[C@@]56CCCN5C[C@H](F)C6)nc4c3F)c12 [Compound 98, 2-((S)-1-((E)-3-(2,6-dimethylpyrimidin-4-yl)acryloyl)-4-(7-(8-ethyl-7-fluoronaphthalen-1-yl)-8-fluoro-2-(((2R,7aS)-2-fluorotetrahydro-1H-pyrrolizin-7a(5H)-yl)methoxy)pyrido[4,3-d]pyrimidin-4-yl)piperazin-2-yl)acetonitrile] |
| 10 to 100 | CC(C)c1noc(/C=C/C(=O)N2CCN(c3nc(OC[C@@]45CCCN4C[C@H](F)C5)nc4c3CCN(c3cccc5cccc(Cl)c35)C4)C[C@@H]2CC#N)n1 [Compound 125] |
| 10 to 100 | C[C@@H](F)c1noc(/C=C/C(=O)N2CCN(c3nc(OC[C@@]45CCCN4C[C@H](F)C5)nc4c(F)c(-c5cccc6cccc(Cl)c56)ncc34)C[C@@H]2CC#N)n1 [Compound 130] |
| 10 to 100 | CC(C)c1noc(/C=C/C(=O)N2CCN(c3nc(OC[C@@]45CCCN4C[C@H](F)C5)nc4c(F)c(-c5cccc6ccc(F)c(Cl)c56)ncc34)C[C@@H]2CC#N)n1 [Compound 132] |
| 10 to 100 | CC(C)c1noc(/C=C/C(=O)N2CCN(c3nc(OC[C@]45CCCN4C[C@H](F)C5)nc4c(F)c(-c5cccc6ccc(F)c(Cl)c56)ncc34)C[C@@H]2CC#N)n1 [Compound 133] |
| < 10 | N#CC[C@H]1CN(c2nc(OCC34CCCN3CCC4)nc3c2CCN(c2cccc4cccc(Cl)c24)C3)CCN1C(=O)/C=C/CN1CC2CCC(C1)O2 [Compound 167] |
| < 10 | CO[C@@H]1CCN(C/C=C/C(=O)N2CCN(c3nc(OCC45CCCN4CCC5)nc4c3CCN(c3cccc5cccc(Cl)c35)C4)C[C@@H]2CC#N)C1 [Compound 173] |
| < 10 | N#CC[C@H]1CN(c2nc(OCC34CCCN3CCC4)nc3c2CCN(c2cccc4cccc(Cl)c24)C3)CCN1C(=O)/C=C/CN1CC[C@H](F)C1 [Compound 174] |
| < 10 | N#CC[C@H]1CN(c2nc(OCC34CCCN3CCC4)nc3c2CCN(c2cccc4cccc(Cl)c24)C3)CCN1C(=O)/C=C/CN1CC[C@@H](F)C1 [Compound 175] |
| < 10 | N#CC[C@H]1CN(c2nc(OCC34CCCN3CCC4)nc3c(F)c(-c4cccc5ccc(F)c(Cl)c45)ncc23)CCN1C(=O)/C=C/CN1CCOCC1 [Compound 179] |
| < 10 | N#CC[C@H]1CN(c2nc(OCC34CCCN3CCC4)nc3c(F)c(-c4cccc5cccc(Cl)c45)ncc23)CCN1C(=O)/C=C/CN1C[C@@H]2C[C@H]1CO2 [Compound 184] |
| < 10 | N#CC[C@H]1CN(c2nc(OCC34CCCN3CCC4)nc3c(F)c(-c4cccc5cccc(Cl)c45)ncc23)CCN1C(=O)/C=C/CN1C[C@H]2C[C@@H]1CO2 [Compound 185] |
| < 10 | N#CC[C@H]1CN(c2nc(OCC34CCCN3CCC4)nc3c2CCN(c2cccc4cccc(Cl)c24)C3)CCN1C(=O)/C=C/CN1CC2(COC2)C1 [Compound 194] |
| < 10 | C[C@H]1CN(C/C=C/C(=O)N2CCN(c3nc(OCC45CCCN4CCC5)nc4c3CCN(c3cccc5cccc(Cl)c35)C4)C[C@@H]2CC#N)C[C@H](C)O1 [Compound 198] |
| < 10 | CO[C@H]1CCN(C/C=C/C(=O)N2CCN(c3nc(OCC45CCCN4CCC5)nc4c3CCN(c3cccc5cccc(Cl)c35)C4)C[C@@H]2CC#N)C1 [Compound 200] |
| < 10 | N#CC[C@H]1CN(c2nc(OCC34CCCN3CCC4)nc3c2CCN(c2cccc4cccc(Cl)c24)C3)CCN1C(=O)/C=C/CN1CC2CC2C1 (some centres unmarked) [Compound 204] |
| < 10 | COC1CN(C/C=C/C(=O)N2CCN(c3nc(OCC45CCCN4CCC5)nc4c3CCN(c3cccc5cccc(Cl)c35)C4)C[C@@H]2CC#N)C1 [Compound 205] |

Source: US20250129103A1, “METHODS FOR TREATMENT OF CANCER” (Frontier Medicines Corporation, priority 2022, published 2025)
